{
  "source": "paper PMC7226357",
  "about": "“Aspirin: A Suicide Inhibitor of Carbonic Anhydrase II” (Biomolecules, 2020)",
  "target": "T1, Carbonic anhydrase II (Homo sapiens, UniProt P00918)",
  "T1 construct": "gene CA2",
  "assay": "colorimetric esterase assay at […] nm (substrate of the assay)",
  "type": "biochemical",
  "data": [
    {"smiles": "CC(=O)Oc1ccc([N+](=O)[O-])cc1", "note": "[pNPA, 4-nitrophenyl acetate]", "values": [
      {"measurement": "colorimetric esterase assay at 348 nm (substrate of the assay)", "value": "CAII cleaves the ester bond of 4-nitrophenyl acetate, generating 4-nitrophenol."}
    ]}
  ]
}
